Earlier results on twelve molecules are cited in article PMC12648288, “Drastic Impact of Donor Substituents on Xanthenes in the PDT of Glioblastoma” (JACS Au, 2025).

For series [1] the following is noted: cited from earlier work.
The test system of a further series is U87MG. Particulars: cited from earlier work; for IC50: 32 (SI list).
The next series has as its system T98G. As to conditions: ref 28 (SI list); cited from earlier work.
For a further series, the system named is SNB-19. Details: method as in ref 11 (SI list). As to conditions: ref 11 (SI list); cited from earlier work.
For another series, the system named is F98. Particulars: 31 (SI list); cited from earlier work.
For series [2] the following is noted: in MeOH, as fraction; cited from earlier work.
A further series has as its system HUVEC. More on the design: method as in ref 16 (SI list). As to conditions: ref 16 (SI list); cited from earlier work.
Another series concerns A172. Details: method as in ref 29 (SI list). As to conditions: ref 29 (SI list); cited from earlier work.
Another series deals with DBTRG-05. Details: method as in ref 29 (SI list). As to conditions: ref 29 (SI list); cited from earlier work.
Setting [3] is: measured in PBS (pH 7.4), 22-32 (SI list).

Like-named read-outs stand apart in the source and are kept apart here. No end group written: not given here. TPC = chlorin-type photosensitizer; Ahx = NCCCCCC(=O)O

`CN(C)c1ccc2cc3ccc(N(C)C)cc3nc2c1` [Acridine Orange]: the “Abs (nm)” value in series [1] (setting [3]) is given as 487 nm.
In the case of `COc1c(CC(C)O)c2c3c(CC(C)O)c(OC)c(=O)c4c(O)cc5c(c6c(cc(O)c(c1=O)c62)OCO5)c43` (centres unmarked) [Cercosporin], the “Abs (nm)” value in series [1] (setting [3]) is reported as 473 nm. The LD50 in the series with U87MG (ref 28 (SI list)) and in the series with T98G was 4 µM each time.
One may read the IC50 as the midpoint of a concentration-inhibition curve. As for `COc1cc(/C=C/C(=O)CC(=O)/C=C/c2ccc(O)c(OC)c2)ccc1O` [Curcumin (CUR), Curcumin], the IC50 with SNB-19 is 5.74 µM.
`CCCCCCOC(C)c1c(C)c2cc3nc(c4c5[nH]c(cc6nc(cc1[nH]2)C(C)=C6CC)c(C)c5C(=O)C4)C(CCC(=O)Nc1ccc(SC2=C(C=CC4=[N+](CCCCS(=O)(=O)[O-])c5ccc6ccccc6c5C4(C)C)CCCC2=CC=C2N(CCCCS(=O)(=O)[O-])c4ccc5ccccc5c4C2(C)C)cc1)C3C.[Na+]` (centres unmarked) [HPPH-CD]: in series [1] (setting [3]), the “Abs (nm)” value is recorded as 848 nm. Further, in the series on U87MG, the concentration for half-maximal inhibition (IC50) was 1.63 µM.
On to `C=Cc1c(C)c2cc3nc(cc4nc(cc5[nH]c(cc1[nH]2)c(C)c5C(C)OC(C)c1c(C)c2cc5[nH]c(cc6nc(cc7nc(cc1[nH]2)C(C)=C7CCC(=O)[O-])C(CCC(=O)[O-])=C6C)c(C)c5C=C)C(C)=C4CCC(=O)[O-])C(CCC(=O)[O-])=C3C.[Na+].[Na+].[Na+].[Na+]` (centres unmarked) [Sinoporphyrin sodium (DVDMS), Sinoporphyrin sodium], for which the “Abs (nm)” value in series [1] (setting [3]) is reported as 631 nm.
On to `Cc1ccnc(-c2cc(C)ccn2)c1.Cc1ccnc(-c2cc(C)ccn2)c1.[Cl-].[Cl-].[Ru+2].c1csc(-c2ccc(-c3ccc(-c4nc5c6cccnc6c6ncccc6c5[nH]4)s3)s2)c1` [TLD1433], for which, in series [1] (setting [3]), the “Abs (nm)” value was 416 nm. In addition, the IC50 was 0.051 µM in the series with U87MG and 2.81 µM with F98.
As to `[Zn+2].c1ccc2c(c1)-c1nc-2nc2[n-]c(nc3nc([n-]c4nc(n1)-c1ccccc1-4)-c1ccccc1-3)c1ccccc21` [ZnPc], the “Abs (nm)” value in series [1] (setting [3]) is 645 nm.
Regarding `CN(C)c1ccc2nc3ccc(=[N+](C)C)cc-3sc2c1` [methylene blue], the “ΦF of reference standard” value in [2] is 0.23.
As for “Benzoporphyrin derivative [Benzoporphyrin derivative (BPD)]”, the “Abs (nm)” value in series [1] (setting [3]) is given as 692 nm. The half-inhibitory concentration (IC50) with U87MG is 13.1 µM.
As to “TPC–Ahx–ATWLPPR: chlorin-type photosensitizer conjugated to neuropilin-1 targeting peptide (SI ref 16) ({TPC-Ahx}-ATWLPPR)”, the “Abs (nm)” value in [1] (EtOH, 16 (SI list)) is listed as 420 nm. Further, the IC50 with HUVEC is 171 µM.
What is called IC30 is the concentration at which the effect reaches the 30% level. In the case of “Tetrahydroporphyrin-Tetratosylat [THPTS]”, in [1] (setting [3]), the “Abs (nm)” value is given as 760 nm. Moreover, the IC30 in the series on A172 was 10 µM; with U87MG (ref 29 (SI list)) it was 2 µM; in the series with DBTRG-05, 4 µM.
On to [(Ph2phen)2Os(dpp)]2+, for which the “Abs (nm)” value in series [1] (setting [3]) is 650 nm. Also, the IC50 with F98 was 86.1 µM.
